According to US4379156A, “Heterocyclic chemicals, their preparation and use” (Burroughs Wellcome Co., priority 1979, dated 1983):
“And” between values parts separate entries of the source, which are not always exact repeats. Equal entries are not always repeated. Where two headings read alike, the source gives them in different places.

How the values were obtained:
Schistosoma mansoni = test: Schistosomicidal activity in infected mice (proportion of dead worms); type: in vivo; details: 12.5 mg/kg, dead worms relative to total worms recovered, autopsy 7 to 10 days after treatment; for % kill P.O.: oral; for % kill S.C.: subcutaneous
Description: Male mice weighing between 18 and 20 g were each infected percutaneously with 80 to 100 cercariae of Schistosoma mansoni. Groups of 5 or 10 mice with a 7 to 9 week infection of schistosomes were dosed orally (P.O.) or subcutaneously (S.C.) with 12.5 mg/kg of the compounds to be tested, and the animals were autopsied from 7 to 10 days after treatment. The number, sex and proportional distribution of schistosomes within the mesenteric, portal and intrahepatic veins were determined, and the final assessment of dose response was made on the proportion of dead worms found in relation to the total worms recovered in the treated group.

[1] = Toxicity in adult male mice (LD50); details: mouse, in vivo, iv, I.V.
[2] = Toxicity in adult male mice (LD50); details: mouse, in vivo, observed up to 10 days
Description: Groups of adult male mice were given graded doses of the compound to be tested by stomach tube (P.O.) or subcutaneously (S.C.). The animals were kept under observation at frequent intervals up to 6 hours, then at 24 hours and daily for up to 10 days for overt changes in behaviour and for fatalities.

[3] = po, by stomach tube, read-out: LD50 P.O.
[4] = sc, subcutaneous, read-out: LD50 S.C.

Compound | % kill P.O. (Schistosoma mansoni) | % kill S.C. (Schistosoma mansoni) | LD50 [1] [mg/kg] | LD50 at 240 h [2, 3] [mg/kg] | LD50 at 240 h [2, 4] [mg/kg]
2-[2-(2-Chlorobenzoylimino)-5-nitro-4-thiazolin-3-yl]diacetamide [Example 3] | 100% and 71% | 99% and 98% |  |  | 
CC(=O)NC(=O)Cn1cc([N+](=O)[O-])sc1=NC(=O)c1ccccc1 [*(1), 2-[2-(benzoylimino)-5-nitro-4-thiazolin-3yl]diacetamide, reference compound] | 58% | 53% | 192 | 953 | 
NC(=O)Cn1cc([N+](=O)[O-])sc1=NC(=O)c1ccccc1 [*(2), 2-(benzoylimino)-5-nitro-4-thiazoline-3-acetamide, reference compound] | 8.5% | 0% |  |  | 
CC(=O)NC(=O)Cn1cc([N+](=O)[O-])sc1=NC(=O)c1ccccc1C [Example 1, 2-[2-(2-Methylbenzoylimino)-5-nitro-4-thiazolin-3-yl]diacetamide] | 80% | 100% |  | > 2000 | > 2000
CC(=O)NC(=O)Cn1cc([N+](=O)[O-])sc1=NC(=O)c1cccc([N+](=O)[O-])c1 [Example 2, 2-[2-(3-Nitrobenzoylimino)-5-nitro-4-thiazolin-3-yl]diacetamide] | 100% | 100% |  | > 2000 | > 2000
CC(=O)NC(=O)Cn1cc([N+](=O)[O-])sc1=NC(=O)c1ccccc1[N+](=O)[O-] [Example 4, 2-[2-(2-Nitrobenzoylimino)-5-nitro-4-thiazolin-3-yl]diacetamide] | 74% | 98% |  |  | 
Cc1ccccc1C(=O)N=c1sc([N+](=O)[O-])cn1CC(N)=O [Example 5, 2-[(2-Methylbenzoyl)imino]-5-nitro-4-thiazoline-3-acetamide] |  |  |  | > 2000 | > 1000
NC(=O)Cn1cc([N+](=O)[O-])sc1=NC(=O)c1cccc([N+](=O)[O-])c1 [Example 6, 2-[(3-Nitrobenzoyl)imino]-5-nitro-4-thiazoline-3-acetamide] |  |  |  | > 1000 | > 500
